Reference: BindingDB's records for doi:10.1016/j.bmcl.2019.05.029 (Novira Therapeutics, 2019)
pEC50: −log10 of the molar value.

Assay: Binding affinity to capsid protein in Hepatitis B virus infected in human HepG2.2.15 cells assessed as inhibition of HBV DNA replication incubated for 3 days followed by replacement of fresh medium containing compound and measured after 3 days by chemiluminescent assay

SMILES | pEC50
O=C(Nc1ccc(F)c(Cl)c1)c1ccc(F)c(S(=O)(=O)N2CCSCC(O)C2)c1 (centres undefined) | 6.77
CC1(O)COCCN(S(=O)(=O)c2cc(C(=O)Nc3ccc(F)c(Cl)c3)ccc2F)C1 (centres undefined) | 7.00
O=C(Nc1ccc(F)c(Cl)c1)c1ccc(F)c(S(=O)(=O)N2CCCCCC(O)C2)c1 (centres undefined) | 7.22
CC1(O)CCCN(S(=O)(=O)c2cc(C(=O)Nc3ccc(F)c(Cl)c3)ccc2F)CC1 (centres undefined) | 6.96
O=C(Nc1ccc(F)c(Cl)c1)c1ccc(F)c(S(=O)(=O)N2CCOCC(O)C2)c1 (centres undefined) | 7.00
O=C(Nc1ccc(F)c(Cl)c1)c1ccc(F)c(S(=O)(=O)N2CCCCC(O)C2)c1 (centres undefined) | 6.77
COC1COCCN(S(=O)(=O)c2cc(C(=O)Nc3ccc(F)c(Cl)c3)ccc2F)C1 (centres undefined) | 6.89
CN1CCN(S(=O)(=O)c2cc(C(=O)Nc3ccc(F)c(Cl)c3)ccc2F)CC(O)C1 (centres undefined) | 6.33
O=C(Nc1ccc(F)c(Cl)c1)c1ccc(F)c(S(=O)(=O)N2CCOCC(F)C2)c1 (centres undefined) | 7.10
O=C(Nc1ccc(F)c(Cl)c1)c1ccc(F)c(S(=O)(=O)N2CCOC[C@H](O)C2)c1 | 7.20
O=C(Nc1ccc(F)c(Cl)c1)c1ccc(F)c(S(=O)(=O)N2CCCC(O)CC2)c1 (centres undefined) | 6.85
CC1(O)CCCCN(S(=O)(=O)c2cc(C(=O)Nc3ccc(F)c(Cl)c3)ccc2F)C1 (centres undefined) | 6.92
O=C(Nc1ccc(F)c(Cl)c1)c1ccc(F)c(S(=O)(=O)N2CCCCC(F)(F)C2)c1 | 6.85
O=C(Nc1ccc(F)c(Cl)c1)c1ccc(F)c(S(=O)(=O)N2CCCCC(O)CC2)c1 (centres undefined) | 7.28
O=C(Nc1ccc(F)c(Cl)c1)c1ccc(F)c(S(=O)(=O)N2CCCCCCC2O)c1 (centres undefined) | 6.92
O=C(Nc1ccc(F)c(Cl)c1)c1ccc(F)c(S(=O)(=O)N2CCOC[C@@H](O)C2)c1 | 6.85
CC(O)C1CCCCN(S(=O)(=O)c2cc(C(=O)Nc3ccc(F)c(Cl)c3)ccc2F)C1 (centres undefined) | 6.85
O=C(Nc1ccc(F)c(Cl)c1)c1ccc(F)c(S(=O)(=O)N2CCCCC(CO)C2)c1 (centres undefined) | 6.85
CN1CCCN(S(=O)(=O)c2cc(C(=O)Nc3ccc(F)c(Cl)c3)ccc2F)CC1=O | 6.66
